Source: patent US7833967B2, “Synthetic antimicrobial polypeptides” (priority 2003, dated 2010)

test system: E. coli TOP10; test: Suicide expression system (SES) growth inhibition; type: cell-based; settings: Table 5; mixed-motif library, re-tested in the Bioscreen C

Substance	Growth inhibition (%)
250 (RRRPPRLPRPIPFRPPPRIPRPIPVRP; Synthetic antimicrobial peptide) [compound 250]	96
251 (RRRPPRLPRPIPFRPPPRIPRPLPFRP; Synthetic antimicrobial peptide) [compound 251]	96
252 (RRRPPRLPRPIPFRPPPRIPRPVPVRP; Synthetic antimicrobial peptide) [compound 252]	92
253 (RRRPPRLPRPIPFRPPPRLPRPIPIRP; Synthetic antimicrobial peptide) [compound 253]	91
254 (RRRPPRLPRPIPFRPPPRVPRPFPIRP; Synthetic antimicrobial peptide) [compound 254]	77
255 (RRRPPRLPRPIPIRPPPRFPRPVPFRP; Synthetic antimicrobial peptide) [compound 255]	93
256 (RRRPPRLPRPIPLRPPPRVPRPIPIRP; Synthetic antimicrobial peptide) [compound 256]	91
257 (RRRPPRLPRPIPVRPPPRFPRPIPFRP; Synthetic antimicrobial peptide) [compound 257]	92
258 (RRRPPRLPRPIPVRPPPRFPRPIPFRP; Synthetic antimicrobial peptide) [compound 258]	92
259 (RRRPPRLPRPIPVRPPPRFPRPIPVRP; Synthetic antimicrobial peptide) [compound 259]	98
260 (RRRPPRLPRPIPVRPPPRIPRPIPVRP; Synthetic antimicrobial peptide) [compound 260]	90
261 (RRRPPRLPRPIPVRPPPRIPRPVPFRP; Synthetic antimicrobial peptide) [compound 261]	92
262 (RRRPPRLPRPIPVRPPPRLPRPVPLRP; Synthetic antimicrobial peptide) [compound 262]	93
263 (RRRPPRLPRPIPVRPPPRVPRPIPLRP; Synthetic antimicrobial peptide) [compound 263]	94
264 (RRRPPRLPRPLPFRPPPRFPRPVPVRP; Synthetic antimicrobial peptide) [compound 264]	92
265 (RRRPPRLPRPLPFRPPPRLPRPFPVRP; Synthetic antimicrobial peptide) [compound 265]	94
266 (RRRPPRLPRPLPFRPPPRLPRPVPVRP; Synthetic antimicrobial peptide) [compound 266]	94
267 (RRRPPRLPRPLPFRPPPRVPRPFPIRP; Synthetic antimicrobial peptide) [compound 267]	94
268 (RRRPPRLPRPLPFRPPPRVPRPVPLRP; Synthetic antimicrobial peptide) [compound 268]	93
269 (RRRPPRLPRPLPFRPPPRVPRPVPVRP; Synthetic antimicrobial peptide) [compound 269]	90

Substance	Growth inhibition (%)
270 (RRRPPRLPRPLPFRPPPRVPRPVPVRP; Synthetic antimicrobial peptide) [compound 270]	90
271 (RRRPPRLPRPLPFRPPPRVPRPVPVRP; Synthetic antimicrobial peptide) [compound 271]	97
272 (RRRPPRLPRPLPIRPPPRFPRPIPVRP; Synthetic antimicrobial peptide) [compound 272]	91
273 (RRRPPRLPRPLPIRPPPRFPRPVPLRP; Synthetic antimicrobial peptide) [compound 273]	92
274 (RRRPPRLPRPLPIRPPPRFPRPVPVRP; Synthetic antimicrobial peptide) [compound 274]	93
275 (RRRPPRLPRPLPIRPPPRLPRPFPVRP; Synthetic antimicrobial peptide) [compound 275]	92
276 (RRRPPRLPRPLPIRPPPRLPRPVPVRP; Synthetic antimicrobial peptide) [compound 276]	94
277 (RRRPPRLPRPLPIRPPPRVPRPFPIRP; Synthetic antimicrobial peptide) [compound 277]	91
278 (RRRPPRLPRPLPIRPPPRVPRPLPFRP; Synthetic antimicrobial peptide) [compound 278]	98
279 (RRRPPRLPRPLPIRPPPRVPRPLPLRP; Synthetic antimicrobial peptide) [compound 279]	91
280 (RRRPPRLPRPLPLRPPPRFPRPFPVRP; Synthetic antimicrobial peptide) [compound 280]	97
281 (RRRPPRLPRPLPLRPPPRFPRPVPLRP; Synthetic antimicrobial peptide) [compound 281]	91
282 (RRRPPRLPRPLPLRPPPRLPHPIPFRP; Synthetic antimicrobial peptide) [compound 282]	95
283 (RRRPPRLPRPLPVRPPPRFPRPVPFRP; Synthetic antimicrobial peptide) [compound 283]	95
284 (RRRPPRLPRPLPVRPPPRFPRPVPVRP; Synthetic antimicrobial peptide) [compound 284]	89
285 (RRRPPRLPRPLPVRPPPRIPRPFPVRP; Synthetic antimicrobial peptide) [compound 285]	91
286 (RRRPPRLPRPLPVRPPPRIPRPLPLRP; Synthetic antimicrobial peptide) [compound 286]	95
287 (RRRPPRLPRPLPVRPPPRLPRPIPIRP; Synthetic antimicrobial peptide) [compound 287]	95
288 (RRRPPRLPRPLPVRPPPRVPRPFPLRP; Synthetic antimicrobial peptide) [compound 288]	96
289 (RRRPPRLPRPLPVRPPPRVPRPFPVRP; Synthetic antimicrobial peptide) [compound 289]	95

Substance	Growth inhibition (%)
290 (RRRPPRLPRPLPVRPPPRVPRPLPLRP; Synthetic antimicrobial peptide) [compound 290]	94
291 (RRRPPRLPRPLPVRPPPRVPRPVPFRP; Synthetic antimicrobial peptide) [compound 291]	90
292 (RRRPPRLPRPLPVRPPPRVPRPVPFRP; Synthetic antimicrobial peptide) [compound 292]	93
293 (RRRPPRLPRPVPFRPPPRFPRPFPIRP; Synthetic antimicrobial peptide) [compound 293]	93
294 (RRRPPRLPRPVPFRPPPRFPRPVPLRP; Synthetic antimicrobial peptide) [compound 294]	95
295 (RRRPPRLPRPVPFRPPPRIPRPFPLRP; Synthetic antimicrobial peptide) [compound 295]	59
296 (RRRPPRLPRPVPFRPPPRVPRPIPFRP; Synthetic antimicrobial peptide) [compound 296]	88
297 (RRRPPRLPRPVPFRPPPRVPRPIPVRP; Synthetic antimicrobial peptide) [compound 297]	90
298 (RRRPPRLPRPVPFRPPPRVPRPVPLRP; Synthetic antimicrobial peptide) [compound 298]	92
299 (RRRPPRLPRPVPIRPPPRFPRPIPFRP; Synthetic antimicrobial peptide) [compound 299]	96
300 (RRRPPRLPRPVPIRPPPRIPRPIPFRP; Synthetic antimicrobial peptide) [compound 300]	92
301 (RRRPPRLPRPVPIRPPPRVPRPVPLRP; Synthetic antimicrobial peptide) [compound 301]	92
302 (RRRPPRLPRPVPLRPPPRFPRPVPVRP; Synthetic antimicrobial peptide) [compound 302]	82
303 (RRRPPRLPRPVPLRPPPRVPRPLPIRP; Synthetic antimicrobial peptide) [compound 303]	91
304 (RRRPPRLPRPVPVRPPPRFPRPVPIRP; Synthetic antimicrobial peptide) [compound 304]	90
305 (RRRPPRLPRPVPVRPPPRFPRPVPVRP; Synthetic antimicrobial peptide) [compound 305]	90
306 (RRRPPRLPRPVPVRPPPRFPRPVPVRP; Synthetic antimicrobial peptide) [compound 306]	90
307 (RRRPPRLPRPVPVRPPPRVPRPVPFRP; Synthetic antimicrobial peptide) [compound 307]	92
308 (RRRPPRLPRPVPVRPPPRVPRPVPVRP; Synthetic antimicrobial peptide) [compound 308]	96
309 (RRRPPRVPRPFPIRPPPRVPRPIPFRP; Synthetic antimicrobial peptide) [compound 309]	76
